Source: patent US20060110781A1, “Cholesterol detection reagent” (RIKEN, priority 2002, published 2006)

System: NPC fibroblasts
Assay: Fate of cell surface fPEG-Chol, incorporation into meshwork structure
Settings: for incorporation of fPEG-Chol into meshwork: inhibitor 5 μg/ml before 1 μM fPEG-Chol

SMILES | incorporation of fPEG-Chol into meshwork | internalization of rhodamine dextran (5 μg/ml, 30 minutes, 1 mg/ml rhodamine dextran)
C[C@H]1CCC/C=C/[C@@H]2C[C@H](O)C[C@H]2[C@H](O)/C=C/C(=O)O1 [Brefeldin A] | did not significantly affect | –
COC(=O)Nc1nc2ccc(C(=O)c3cccs3)cc2[nH]1 [nocodazole] | did not significantly affect | –
C=C1[C@@H](C)[C@H]2[C@H](Cc3ccccc3)NC(=O)[C@]23OC(=O)/C=C/[C@H](O)CCC[C@@H](C)C/C=C/[C@H]3[C@@H]1O [cytochalasin B] | meshwork structure was disappeared | did not affect
